Assay results from US20200255492A1, “LEPTIN PEPTIDES AND THEIR USE FOR TREATING NEUROLOGICAL DISORDERS” (UNIVERSITY OF DUNDEE, priority 2017, published 2020).

Tests used:
[1] = system: hippocampal cultures; experiment: Synaptophysin staining and surface GluA1-synaptophysin colocalization; type: cell-based, Sprague Dawley rats; conditions: for colocalization between surface GluA1 and synaptophysin immunostaining: control 43±5.4%; for synaptophysin staining: leptin 50 nM, 30 min
Protocol: Hippocampal cultures were prepared from neonatal Sprague Dawley rats as before (O'Malley et al. 2007). Briefly, neonatal Sprague Dawley rats (1-3 days old) were killed by cervical dislocation in accordance with Schedule 1 of the United Kingdom Government Animals (Scientific Procedures) Act, 1986 and the hippocampi removed. After washing in HEPES buffered saline (HBS) comprising (mM): NaCl 135; KCl 5; CaCl2 1; MgCl2 1; HEPES 10; D-glucose 25 at pH 7.4; cells were treated with protease Type X and Type XIV (0.5 mg/ml; Sigma) for 25 min at room temperature. Dissociated cells were plated onto sterile dishes (Falcon 3001) treated with poly-1-lysine (20 μg/ml; 1-2 h) and maintained in MEM with serum replacement-2 (Sigma) in a humidified atmosphere of 5% CO2 and […] at 37° C. for up to 3 weeks.
To monitor GluA1 surface expression, immunocytochemistry was performed on hippocampal cultures (7-14 DIV) as before (Moult et al. 2010). […] Neurons were then fixed with 4% paraformaldehyde (5 min) before adding an appropriate fluorescently labelled secondary.
As excitatory synaptic strength is governed by the density of AMPA receptors expressed at synapses, the effects on synaptic AMPA receptors was examined by comparing the colocalization between surface GluA1 and synaptophysin immunolabelling in hippocampal cultures (Moult et al. 2010). […] Similarly, in hippocampal neurons treated with leptin (116-130), synaptophysin staining was increased to 122±9% (n=36; P<0.05) and a significant increase (to 64±4.9%; n=36; P<0.01) in GluA1-synaptophysin colocalization was observed (FIG. 2E). Conversely, exposure to leptin (22-56) had no significant effect on either synaptophysin staining (105±9%; n=36; P>0.05) or the degree of colocalization (49±5.4%; n=36; P>0.05; FIG. 2E).

[2] = system: tau in hippocampal neurons; experiment: Immunocytochemistry of endogenous tau and tau/PSD-95 co-localization; type: cell-based, Sprague-Dawley rats; conditions: for % co-localization of tau and PSD-95 in Aβ1-42-treated neurons / relative tau intensity in Aβ1-42-treated neurons: Aβ1-42 1 μM plus leptin/fragment 10 nM or SB216763 100 nM
Protocol: Hippocampal cultures were prepared as previously (Moult et al, 2010). Neonatal Sprague-Dawley rats (1-3 d old) were […] killed by cervical dislocation in accordance with the UK Animals (Scientific Procedures Act) 1986 legislation. Hippocampi were removed, and after washing in HEPES-buffered saline comprising (mM) 135 NaCl; 5 KCl; 1 CaCl2; 1 MgCl2; 10 HEPES; and 25 D-glucose at […], were treated with papain (1.5 mg ml21; Sigma-Aldrich) for 20 min at 37° C. Dissociated cells were plated onto sterile dishes (35 mm diameter; Greiner Bio-One, Kremsmun-ster, Austria) treated with poly-D-lysine (20 μg ml^−1; 1-2 h). Cultures were maintained in serum replacement medium (SR2; Sigma-Aldrich) in a humidified atmosphere of 5% CO2 and […] at 37° C. for up to 2 wk.
Immunocytochemistry was conducted on primary hippocampal cultures (7-14 DIV). Prior to labelling with antibodies, neurons were washed with HBS containing glycine (0.01 mM) and incubated with agents for 1 h at room temperature. Cultures were fixed with 4% paraformaldehyde for 5 min, then permeabilized with 0.1% Triton X-100 for 5 min. To label endogenous tau, neurons were incubated with a rabbit anti-tau (Ab-217; Genscript) primary antibody (1:200 dilution) at room temperature for 30 min, followed by incubation with an Alexa Fluor555 donkey anti-rabbit (1:250, Invitrogen) secondary antibody for an additional 30 min duration. To assess the % co-localisation of tau at synapses, neurons were dual labelled with an antibody against the synaptic marker, PSD-95 (mouse anti-PSD-95; 1:500, Thermo Fisher) followed by application of an Alexa Fluor488 goat anti-mouse secondary antibody (1:500, Invitrogen).
A Zeiss LSM510 confocal microscope was used for image acquisition and analysis. Images were obtained using a 10-s scan speed in single tracking mode or multi-tracking mode for dual labelling experiments. The intensity of immunostaining was measured off-line using Lasersharp software (Zeiss Lasersharp), whereby analysis lines of 50 μm length were drawn along randomly selected dendritic regions. All data were obtained from at least three different cultures from different animals. Imaging conditions including illumination intensity and photomultiplier gains were kept constant between treatments for each experiment. In addition, data were normalised relative to the mean fluorescence intensity obtained from control neurons. For synaptic co-localisation experiments, tau and PSD-95 positive immunostaining were compared. The number of tau-positive sites that co-localized with PSD-95 positive sites were counted and expressed as a percentage of total positive sites (peaks of intensity).

[3] = system: juvenile hippocampal slices; experiment: Subthreshold LFS: Aβ1-42-induced LTD; type: cell-based, Sprague Dawley rats; conditions: for basal synaptic transmission: 10 nM; for synaptic transmission after LFS (magnitude of Aβ1-42-induced LTD): 10 nM plus Aβ1-42
Protocol: Parasagittal hippocampal slices (300 μm) were prepared from either P13-21 or 12-24-week-old male Sprague Dawley rats as previously (Moult et al. 2010). Brains were rapidly removed and placed in ice-cold artificial CSF (aCSF; bubbled with 95% O2 and 5% CO2) containing the following (in mm): 124 NaCl, 3 KCl, 26 NaHCO3, 1.25 NaH2PO4, 2 CaCl2, 1 MgSO4, and 10 d-glucose. Once prepared, parasagittal slices were allowed to recover at room temperature in oxygenated aCSF for 1 h before use. Slices were transferred to a submerged chamber maintained at room temperature and perfused with artificial cerebrospinal fluid at 2 ml min^−1. Standard extracellular recordings were used to monitor evoked field excitatory postsynaptic potentials (fEPSP) from stratum radiatum. The Schaffer collateral-commissural pathway was stimulated (constant voltage; 0.1 ms) at 0.033 Hz, using a stimulus intensity that evoked a peak amplitude ˜50% of the maximum. Synaptic potentials were low pass filtered at 2 kHz and digitally sampled at 10 kHz. The fEPSP slope was measured and expressed relative to baseline. Synaptic records are the average of 4 consecutive responses and stimulus artefacts are blanked for clarity. Recordings were made using an Axopatch 200B amplifier and analyzed using LTP v2.4 software. In synaptic plasticity studies, the degree of potentiation was calculated 30-35 min after HFS and expressed as a percentage of baseline±standard error of mean (SEM).
It is known that oligomeric Aβ promotes the induction of LTD (Shankar et al. 2008) and that exposure to a low concentration of leptin (10 nM) prevents facilitation of hippocampal LTD by Aβ1-42 (Doherty et al. 2013). Thus we assessed if either of the leptin fragments mirror leptin action. Initially we verified that leptin prevented Aβ1-42-induced LTD. […] Furthermore, leptin (10 nM) reduced the magnitude of Aβ1-42-induced LTD such that LFS depressed synaptic transmission to 101±5.3% of baseline in leptin-treated slices (n=4; P>0.05; FIG. 4B). To establish if the leptin fragments mirrored leptin action the effects of leptin (116-130) or leptin (22-56) were also examined.

Row | Substance | colocalization between surface GluA1 and synaptophysin immunostaining [1] | synaptophysin staining [1] | % co-localization of tau and PSD-95 in Aβ1-42-treated neurons [2] | relative tau intensity in Aβ1-42-treated neurons [2] | basal synaptic transmission [3] | synaptic transmission after LFS (magnitude of Aβ1-42-induced LTD) [3] | % co-localization of tau and PSD-95, Aβ peptide alone ([2]; 1 μM) | relative tau intensity at dendrites, Aβ peptide alone ([2]; 1 μM) | synaptic transmission after subthreshold LFS (LTD), Aβ1-42 alone ([3]; vehicle-treated slices 94±5.6%)
1 | SCSLPQTSGLQKPES (listed as Mus musculus) [leptin (116-130)] | 64±4.9% | 122±9 % of control | prevented Aβ1-42-driven movement of tau to synapses | reducing dendritic tau levels | no significant effect on basal synaptic transmission | 94±5.2 % of baseline |  |  | 
2 | leptin (22-56): leptin fragment amino acids 22-56 (Bachem), comparison fragment (VPIQKVQDDTKTLIKTIVTRINDISHTQSVSSKQK; UniProt P41159 22-56, looked up, fragment) [reference compound] | 49±5.4% | 105±9 % of control |  |  | no significant effect on basal synaptic transmission | 73±4.0 % of baseline |  |  | 
3 | leptin: the metabolic hormone leptin, whole (full length) leptin molecule; human leptin from Sigma in SH-SY5Y work | 62±4.4% | 144±9 % of control | prevented the Aβ1.42-driven movement of tau to synapses | reducing the dendritic levels of tau to near control levels |  | 101±5.3 % of baseline |  |  | 
4 | Aβ1-42: amyloid beta 1-42, toxin used in the AD models [reference compound] |  |  |  |  |  |  | increases % co-localization between endogenous tau and PSD-95 | increased endogenous tau expression compared to control | 73±3.8 % of baseline
